Results as given in patent publication US20240016894A1, “METHODS AND MATERIALS FOR AMELIORATING CREATINE DEFICIENCY DISORDERS” (The Regents of the University of California, priority 2022, published 2024).

Tested on: Gamt−/− mice
Assay: (18F)-FDG PET brain glucose uptake
Type: in vivo, mouse
Conditions: Gamt-deficient mice; sequence regular chow (5.24±0.76), oral creatine supplementation, then AAV (regular chow only)
Text: Considering the importance of the creatine/phosphocreatine shuttle to cells with high-energy expenditures, we examined the uptake of glucose to the brain in Gamt-deficient mice. Fluorodeoxyglucose (18(F)-FDG)-positron-emission tomography (PET) is a well-established non-invasive imaging tool for monitoring changes in cerebral brain glucose metabolism in vivo. To examine restoration of hepatic Gamt and its effect as a treatment strategy in GAMT deficiency, we sought to examine the brain of this preclinical model. By measuring cerebral glucose metabolism with (18F)-FDG-PET we can detect neuronal dysfunction in vivo as brain glucose metabolism is determined by synaptic activity mainly in order to restore membrane potentials (26). To semi-quantitate tissue activity, we determined the activity divided by the decay-corrected activity injected into the mouse; this ratio is defined as the percent-injected dose per cubic centimeter in tissue (% ID/cc). […]
We evaluated if there was a substantial improvement in brain metabolism with restoration of GAMT activity in hepatocytes with a gene therapy approach and compared this to present day therapy with oral creatine supplementation. […]
Animals were anesthetized with 1.5% vaporized isoflurane, and injected with (18F)-FDG via tail vein. […] Co-registered PET/CT data were analyzed and quantified using AMIDE software. […]

CN(CC(=O)O)C(=N)N [creatine]
Brain (18F)-FDG uptake, each mouse its own control: 5.26±1.10 % ID/cc
